Where two headings read alike, the source gives them in different places.

In general, MIC refers to the lowest concentration found to suppress growth.

Assay [1] concerns carbapenem-resistant Acinetobacter baumannii. Put plainly: Chessboard microbroth dilution MIC/FIC, compound 1 in combination with polymyxin. In kind it is cell-based. The note with it: for MIC: Acinetobacter baumannii, read-out: Compound 1 MIC alone; for Compound 1 MIC in combination: with polymyxin. The source says:
This experiment is designed to determine the minimum inhibitory concentration (MIC) of compound 1 in combination with polymyxin against carbapenem-resistant Acinetobacter baumannii and to calculate the fractional inhibitory concentration (FIC) index.
Test bacteria: 10 strains of carbapenem-resistant Acinetobacter baumannii are clinically isolated strains, and are provided by Shanghai Junji Medical Laboratory Co., Ltd.
According to the recommendation of the Clinical and Laboratory Standards Institute (CLSI), the microbroth dilution method designed by the chessboard method was used to determine the minimum inhibitory concentration (MIC) of compound 1 in combination with polymyxin against the above strains, and the fractional inhibitory concentration (FIC) index was calculated.
Compound 1 was dissolved in dimethyl sulfoxide to obtain a stock solution I with a concentration of 51200 mg/L. The stock solution I was subjected to 1:1 gradient dilution with dimethyl sulfoxide to obtain a dilution solution with a concentration range of 51200 to 25 mg/L. The corresponding concentrations were added to sterile water for 100-fold dilution to obtain working solution I with a concentration range of 512 to 0.25 mg/L.
Polymyxin was dissolved in sterile water to obtain a stock solution with a concentration of 5120 mg/L. The polymyxin stock solution was subjected to 1:1 gradient dilution with sterile water to obtain a working solution II with a concentration range of 512 to 0.25 mg/L.
(§1) According to the method in Example 1, a drug sensitive plate was prepared with working solution I and working solution II, and the specific process will not be repeated here.
(§2) (2) The culture medium of the bacterial solution: Cation-Adjusted Mueller-Hinton Broth (CAMHB), a product of BBL, USA, batch number 9015952.
(§3) (3) Formulation method of bacterial solution: According to the direct colony suspension method, the test bacteria cultured overnight were prepared into a 0.5 McFarland turbidity tube using physiological saline. Then, the resulting solution was dilute 100 times with the above culture medium. 100 μL of the resulting bacterial solution was mixed well with the solution (100 μL) in each well of the drug sensitivity plate, and the final inoculation amount was 10^5 CFU/mL.
(§4) (4) Culture conditions: Culturing at 35±2° C. for 20 hours in air.
(1) The experimental results were determined according to the standard of CLSI 2020 M100 30th edition.
(§5) wherein: FIC≤0.5 indicates synergistic effect; 0.5<FIC≤1.0 indicates additive effect; 1<FIC≤2.0 indicates irrelevant effect; and FIC>2 indicates antagonistic effect.
(Dilution methods test growth across graded concentrations, often in twofold steps.)

Assay [2] relates to drug-resistant Escherichia coli II (drug-resistant Escherichia coli 1864). As to the kind of experiment: Chessboard microbroth dilution MIC/FIC, compound A in combination with meropenem. In kind it is cell-based. The conditions noted are these: strain 1864.
Excerpt: This experiment is designed to determine the minimum inhibitory concentration (MIC) of compound A in combination with meropenem against drug-resistant Escherichia coli I (a strain resistant to carbapenem antibiotics) and drug-resistant Escherichia coli II (a strain resistant to fluoroquinolone antibiotics, non-fluoroquinolone antibiotics, aminoglycoside antibiotics, glycopeptide antibiotics and carbapenem antibiotics), and to calculate the fractional inhibitory concentration (FIC) index.
1 strain of drug-resistant Escherichia coli II, namely drug-resistant Escherichia coli 1864, is provided by the School of Pharmacy of Fudan University. This strain is resistant to fluoroquinolone antibiotics (such as levofloxacin), non-fluoroquinolone antibiotics (such as nalidixic acid, nemofloxacin), aminoglycoside antibiotics (such as gentamicin), glycopeptide antibiotics (such as vancomycin) and carbapenem antibiotics (such as meropenem).
According to the recommendation of the Clinical and Laboratory Standards Institute (CLSI), the microbroth dilution method designed by the chessboard method was used to determine the minimum inhibitory concentration (MIC) of compound A in combination with meropenem against the above strains, and the fractional inhibitory concentration (FIC) index was calculated.
Compound A was dissolved in dimethyl sulfoxide to obtain a stock solution I with a concentration of 1280 mg/L. The stock solution I was diluted to 512 mg/L with sterile water to obtain a gradient dilution first tube solution I. The gradient dilution first tube solution I was subjected to 1:1 gradient dilution with sterile water to obtain a working solution I with a gradient range of 512 to 0.25 mg/L.
Meropenem was dissolved in sterile water to obtain a stock solution II with a concentration of 5120 mg/L. The stock solution II was diluted to 1024 mg/L with sterile water to obtain a gradient dilution first tube solution II. The gradient dilution first tube solution II was subjected to 1:1 gradient dilution with sterile water to obtain a working solution II with a gradient range of 1024 to 0.5 mg/L.
as §1, §2, §3, §4
(1) The experimental results were determined according to the standard of CLSI 2019 M100 29th edition.
as §5

The mark [3] stands for this setting: strain 18-J11-001, compound 1 + polymyxin.
Setting [4] is: strain 18-J11-002, compound 1 + polymyxin.
[5] abbreviates: strain 18-J11-034, compound 1 + polymyxin.
Where [6] appears, read: strain 18-J11-097, compound 1 + polymyxin.
The mark [7] stands for this setting: strain 18-J15-030, compound 1 + polymyxin.
[8] abbreviates: strain 18-J21-095, compound 1 + polymyxin.
The mark [9] stands for this setting: strain 18-J24-015, compound 1 + polymyxin.
The mark [10] stands for this setting: strain 18-J24-033, compound 1 + polymyxin.
Where [11] appears, read: strain 18-J40-021, compound 1 + polymyxin.
The mark [12] stands for this setting: strain 18-J51-052, compound 1 + polymyxin.

For the molecule `O=[N+]([O-])c1c(Br)c(Cl)c2cccnc2c1O` [Compound 1, 6-bromo-5-chloro-7-nitroquinolin-8-ol], the MIC was determined as 8 µg/mL in assay [1] (strain 18-J11-001); 4 µg/mL in assay [1] (strain 18-J11-002); 4 µg/mL in assay [1] (strain 18-J11-034); 4 µg/mL in assay [1] (strain 18-J11-097); 16 µg/mL in assay [1] (strain 18-J15-030); 8 µg/mL in assay [1] (strain 18-J21-095). Besides, the minimal inhibitory concentration (MIC) was found to be 8 µg/mL in assay [1] (strain 18-J24-015), 4 µg/mL in assay [1] (strain 18-J24-033), 8 µg/mL in assay [1] (strain 18-J40-021) and 4 µg/mL in assay [1] (strain 18-J51-052). Moreover, the “change of the MIC of polymyxin by the combination” value in assay [1] (compound 1 + polymyxin) was “significantly reduce”. The “effect of the combination (summary of Table 2)” value in assay [1] (compound 1 + polymyxin) is “synergistic effect (FIC≤0.5 indicates synergistic effect)”. Moreover, the FIC index turned out to be 0.303 in assay [1] (setting [3]); 0.740 in assay [1] (setting [4]); 0.500 in assay [1] (setting [5]); 0.365 in assay [1] (setting [6]); 0.313 in assay [1] (setting [7]); 0.740 in assay [1] (setting [8]). Also, the FIC index is listed as 0.375 in assay [1] (setting [9]), 0.500 in assay [1] (setting [10]), 0.250 in assay [1] (setting [11]) and 0.750 in assay [1] (setting [12]). Also, the Results result in assay [1] (setting [3]) is “Synergistic”; in assay [1] (setting [4]) it was “Additive”; in assay [1] (setting [5]) it was “Synergistic”; in assay [1] (setting [6]) it was “Synergistic”; in assay [1] (setting [7]) it was “Synergistic”; in assay [1] (setting [8]), “Additive”. Moreover, the Results result in assay [1] (setting [9]) is “Synergistic”; in assay [1] (setting [10]), “Synergistic”; in assay [1] (setting [11]), “Synergistic”; in assay [1] (setting [12]), “Additive”. In addition, the “Compound 1 MIC in combination” value in assay [1] (strain 18-J11-001) turned out to be 0.5 µg/mL; in assay [1] (strain 18-J11-002), 2 µg/mL; in assay [1] (strain 18-J11-034), 1 µg/mL; in assay [1] (strain 18-J11-097), 0.5 µg/mL; in assay [1] (strain 18-J15-030), 1 µg/mL; in assay [1] (strain 18-J21-095), 4 µg/mL. In addition, the “Compound 1 MIC in combination” value in assay [1] (strain 18-J24-015) is 1 µg/mL; in assay [1] (strain 18-J24-033), 1 µg/mL; in assay [1] (strain 18-J40-021), 1 µg/mL; in assay [1] (strain 18-J51-052) it was 2 µg/mL.
As for `C[C@@H](O)[C@H]1C(=O)N2C(C(=O)O)=C(S[C@@H]3CN[C@H](C(=O)N(C)C)C3)[C@H](C)[C@H]12` [Meropenem, reference compound], the minimal inhibitory concentration (MIC) in assay [2] (Escherichia coli, read-out: Meropenem MIC alone) is 128 µg/mL. For the same molecule, the “Meropenem MIC in combination” value in assay [2] (with compound A) was determined as 2 µg/mL.
